Experimental findings from patent US20260355196A1, “INHIBITORS AND DEGRADERS OF PIP4K PROTEIN” (Larkspur Biosciences, Inc., priority 2023, published 2026) are described below.

In the first assay the target is T1, PIP4K2C (Homo sapiens, UniProt Q8TBX8).
T1 sequence (Q8TBX8 1-421): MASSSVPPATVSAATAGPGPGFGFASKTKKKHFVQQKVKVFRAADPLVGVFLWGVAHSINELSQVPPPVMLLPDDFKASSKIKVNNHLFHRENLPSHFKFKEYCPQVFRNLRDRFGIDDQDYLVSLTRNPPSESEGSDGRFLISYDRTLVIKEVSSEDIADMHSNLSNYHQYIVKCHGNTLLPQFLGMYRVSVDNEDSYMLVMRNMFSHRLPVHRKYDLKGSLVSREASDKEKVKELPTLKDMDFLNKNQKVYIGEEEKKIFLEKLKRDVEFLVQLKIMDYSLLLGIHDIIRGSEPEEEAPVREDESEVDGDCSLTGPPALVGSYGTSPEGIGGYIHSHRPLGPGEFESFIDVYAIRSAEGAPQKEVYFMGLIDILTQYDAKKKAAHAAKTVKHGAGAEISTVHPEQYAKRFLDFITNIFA
Description: HiBiT PIP4K2C degradation assay in MOLT-4 cells (endogenous PIP4K2C C-terminally tagged with HiBiT). It is filed as cell-based. The following applies: 6 hours of incubation time, rather than 24 hours; MOLT-4, top concentration 10 micromolar; read-out: HiBIT-degradation MOLT4 PIP4k2C DC50 (6 hours, marked *). The arrangement: untagged in primary human PBMCs and monocyte-derived dendritic cells. In a few lines:
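In a CRISPR-engineered MOLT-4 clone carrying HiBiT-tagged PIP4K2C, degradation was assessed after 24 or 6 hours of dosing (10 micromolar top, 3-fold steps). Luminescence from lytic HiBiT detection was fitted to obtain DC50.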
On the technique in general: With HiBiT, luminescence reflects the tagged protein that the partner subunit can reach.
Broadly, the DC50 is the concentration at which degradation of the target reaches its halfway point. As for `O=C1CCC(Nc2ccc(N3CCN(C4CCN(C(=O)O[C@H]5CC[C@H](Nc6ncc(F)c(-c7cccc(-n8ccccc8=O)c7)n6)CC5)CC4)CC3)c(F)c2)C(=O)N1` (stereo partly drawn) [Compound 475, trans-4-((5-fluoro-4-(3-(2-oxopyridin-1 (2H)-yl)phenyl)pyrimidin-2-yl)amino)cyclohexyl 4-(4-(4-((2,6-dioxopiperidin-3-yl)amino)-2-fluorophenyl)piperazin-1-yl)piperidine-1-carboxylate], the DC50 was < 500 nM.

For `O=C1CC[C@@H](Nc2ccc(C3CCN([C@H]4CC[C@H](NC(=O)[C@H]5CC[C@H](Nc6ncc(F)c(-c7cccc(-n8ccccc8=O)c7)n6)CC5)CC4)CC3)c(F)c2)C(=O)N1` (single isomer, unassigned) [Compound 418], the half-maximal degradation concentration (DC50) was < 500 nM.

As to `O=C1CCC(Nc2ccc(C3CCN(CC4(O)CCC(C(=O)N5CCC(Nc6ncc(F)c(-c7cccc(-n8ccccc8=O)c7)n6)CC5)CC4)CC3)c(F)c2)C(=O)N1` (stereo not drawn) [Compound 680, trans-3-((3-fluoro-4-(1-((4-(4-((5-fluoro-4-(3-(2-oxopyridin-1 (2H)-yl)phenyl)pyrimidin-2-yl)amino)piperidine-1-carbonyl)-1-hydroxycyclohexyl)methyl)piperidin-4-yl)phenyl)amino)piperidine-2,6-dione], the DC50 is < 500 nM.

Take `O=C1CCC(Nc2ccc(N3CCC(N4CCC(C(=O)N[C@H]5CC[C@H](Nc6ncc(F)c(-c7cccc(N8CCCCC8=O)c7)n6)CC5)CC4)CC3)c(F)c2)C(=O)N1` (stereo partly drawn) [Compound 587, 1′-(4-((2,6-dioxopiperidin-3-yl)amino)-2-fluorophenyl)-N-(trans-4-((5-fluoro-4-(3-(2-oxopiperidin-1-yl)phenyl)pyrimidin-2-yl)amino)cyclohexyl)-[1,4′-bipiperidine]-4-carboxamide]: the DC50 is < 500 nM.

In the case of `O=C1CCC(Nc2ccc(C3CCN([C@H]4CC[C@H](NC(=O)[C@H]5CC[C@H](Nc6ncc(F)c(-c7cccc(-c8ccccc8)c7)n6)CC5)CC4)CC3)c(F)c2)C(=O)N1` (stereo partly drawn) [Compound 658, trans-(1r,4R)-4-((4-([1,1′-biphenyl]-3-yl)-5-fluoropyrimidin-2-yl)amino)-N-((1r,4R)-4-(4-(4-((2,6-dioxopiperidin-3-yl)amino)-2-fluorophenyl)piperidin-1-yl)cyclohexyl)cyclohexane-1-carboxamide], the DC50 is < 500 nM.

Consider `O=C1CCC(Nc2ccc(C3CCN([C@H]4CC[C@H](NC(=O)[C@H]5CC[C@H](Nc6ncc(F)c(-c7cccc(C8CC8)c7)n6)CC5)CC4)CC3)c(F)c2)C(=O)N1` (stereo partly drawn) [Compound 503, trans-4-((4-(3-cyclopropylphenyl)-5-fluoropyrimidin-2-yl)amino)-N-(trans-4-(4-(4-((2,6-dioxopiperidin-3-yl)amino)-2-fluorophenyl)piperidin-1-yl)cyclohexyl)cyclohexane-1-carboxamide], for which the DC50 was < 500 nM.

In the case of `O=C1CCC(Nc2ccc(C3CCN([C@H]4CC[C@H](NC(=O)[C@H]5CC[C@H](Nc6ncc(F)c(-c7cccc(C(=O)N8CC[C@H](O)C8)c7)n6)CC5)CC4)CC3)c(F)c2)C(=O)N1` (stereo partly drawn) [Compound 510, trans-N-(trans-4-(4-(4-((2,6-dioxopiperidin-3-yl)amino)-2-fluorophenyl)piperidin-1-yl)cyclohexyl)-4-((5-fluoro-4-(3-((S)-3-hydroxypyrrolidine-1-carbonyl)phenyl)pyrimidin-2-yl)amino)cyclohexane-1-carboxamide], the DC50 is < 500 nM.

Regarding `Cn1nc(C2CCC(=O)NC2=O)c2ccc(C3CCN(C[C@H]4CC[C@H](C(=O)N[C@H]5CC[C@H](Nc6ncc(F)c(-c7cccc(-n8ccccc8=O)c7)n6)CC5)CC4)CC3)cc21` (stereo partly drawn) [Compound 535, trans-(1r,4R)-4-((4-(3-(2,6-dioxopiperidin-3-yl)-1-methyl-1H-indazol-6-yl)piperidin-1-yl)methyl)-N-((1r,4R)-4-((5-fluoro-4-(3-(2-oxopyridin-1 (2H)-yl)phenyl)pyrimidin-2-yl)amino)cyclohexyl)cyclohexane-1-carboxamide], the DC50 is < 500 nM.

`O=C1CCC(Nc2ccc(N3CCC(CC4CCN(C(=O)[C@H]5CC[C@H](Nc6ncc(F)c(-c7cccc(N8CCCOC8=O)c7)n6)CC5)CC4)CC3)c(F)c2)C(=O)N1` (stereo partly drawn) [Compound 425, trans-3-((3-fluoro-4-(4-((1-(-4-((5-fluoro-4-(3-(2-oxo-1,3-oxazinan-3-yl)phenyl)pyrimidin-2-yl)amino)cyclohexane-1-carbonyl)piperidin-4-yl)methyl)piperidin-1-yl)phenyl)amino)piperidine-2,6-dione]: the DC50 was < 500 nM.

Consider `O=C1CCC(Nc2ccc(N3CCN(CC4CCN(C(=O)[C@H]5CC[C@H](Nc6ncc(F)c(-c7cccc(N8CCOCC8)c7)n6)CC5)CC4)CC3)c(F)c2)C(=O)N1` (stereo partly drawn) [Compound 686, trans-3-((3-fluoro-4-(4-((1-(4-((5-fluoro-4-(3-morpholinophenyl)pyrimidin-2-yl)amino)cyclohexane-1-carbonyl)piperidin-4-yl)methyl)piperazin-1-yl)phenyl)amino)piperidine-2,6-dione], for which the DC50 is < 500 nM.

As for `O=C1CCC(Nc2ccc(N3CCN(CC4CCN(C(=O)[C@H]5CC[C@H](Nc6ncc(F)c(-c7cccc(N8CCCOC8=O)c7)n6)CC5)CC4)CC3)c(F)c2)C(=O)N1` (stereo partly drawn) [Compound 426, trans-3-[3-fluoro-4-[4-[[1-[4-[[5-fluoro-4-[3-(2-oxo-1,3-oxazinan-3-yl)phenyl]pyrimidin-2-yl]amino]cyclohexanecarbonyl]-4-piperidyl]methyl]piperazin-1-yl]anilino]piperidine-2,6-dione], the DC50 is < 500 nM.

In the case of `O=C1CCC(Nc2ccc(C3CCN(CC4CCN(C(=O)[C@H]5CC[C@H](Nc6ncc(F)c(-c7cccc(C8CC8)c7)n6)CC5)CC4)CC3)c(F)c2)C(=O)N1` (stereo partly drawn) [Compound 554, trans-3-((4-(1-((1-(4-((4-(3-cyclopropylphenyl)-5-fluoropyrimidin-2-yl)amino)cyclohexane-1-carbonyl)piperidin-4-yl)methyl)piperidin-4-yl)-3-fluorophenyl)amino)piperidine-2,6-dione], the DC50 is < 500 nM.

Still in this assay, the particulars now being: 24 hours incubation, MOLT-4, top concentration 10 micromolar; read-out: HiBIT-degradation MOLT4 PIP4k2C 24 hours DC50.
Regarding `O=C1CCC(N2Cc3cc(OC4CCN(C5CCN(CC(=O)N6CCC(Nc7ncc(Cl)c(-c8cccc(-c9ccccc9)c8)n7)CC6)CC5)CC4)ccc3C2=O)C(=O)N1` (stereo not drawn) [Compound 87, 3-(5-((1′-(2-(4-((4-([1,1′-biphenyl]-3-yl)-5-chloropyrimidin-2-yl)amino)piperidin-1-yl)-2-oxoethyl)-[1,4′-bipiperidin]-4-yl)oxy)-1-oxoisoindolin-2-yl)piperidine-2,6-dione], the 50% degradation concentration (DC50) is < 500 nM.

`O=C1CCC(Nc2ccc(C3CCN(C4CCN(CCC(=O)N5CCC(Nc6ncc(F)c(-c7cccc(-n8ccccc8=O)c7)n6)CC5)CC4)CC3)c(F)c2)C(=O)N1` (stereo not drawn) [Compound 343, 3-((3-fluoro-4-(1′-(3-(4-((5-fluoro-4-(3-(2-oxopyridin-1(2H)-yl)phenyl)pyrimidin-2-yl)amino)piperidin-1-yl)-3-oxopropyl)-[1,4′-bipiperidin]-4-yl)phenyl)amino)piperidine-2,6-dione]: the DC50 was < 500 nM.

As to `Cn1c(=O)n(C2CCC(=O)NC2=O)c2ccc(C3CCN(C(=O)CN4CCN(C(=O)[C@H]5CCC[C@@H](Nc6ncc(Cl)c(-c7cccc(-c8ccccc8)c7)n6)C5)CC4)CC3)cc21` (relative stereo) [Compound 58, cis-3-(5-(1-(2-(4-(3-((4-([1,1′-biphenyl]-3-yl)-5-chloropyrimidin-2-yl)amino)cyclohexane-1-carbonyl)piperazin-1-yl)acetyl)piperidin-4-yl)-3-methyl-2-oxo-2,3-dihydro-1H-benzo[d]imidazol-1-yl)piperidine-2,6-dione], the DC50 was < 500 nM.

For the compound `Cn1c(=O)n(C2CCC(=O)NC2=O)c2ccc(C3CCN(CC4CCN(CC(=O)N5CCC(Nc6ncc(Cl)c(-c7cccc(-c8ccc(F)cc8)c7)n6)CC5)CC4)CC3)cc21` (stereo not drawn) [Compound 287, 3-(5-(1-((1-(2-(4-((5-chloro-4-(4′-fluoro-[1,1′-biphenyl]-3-yl)pyrimidin-2-yl)amino)piperidin-1-yl)-2-oxoethyl)piperidin-4-yl)methyl)piperidin-4-yl)-3-methyl-2-oxo-2,3-dihydro-1H-benzo[d]imidazol-1-yl)piperidine-2,6-dione], the DC50 was < 500 nM.

With `O=C(COc1cccc2c1CN(C1CCC(=O)NC1=O)C2=O)NCCCCC(=O)N1CCC(C(=O)N2CCC(Nc3ncc(Cl)c(-c4cccc(-c5ccccc5)c4)n3)CC2)CC1` (stereo not drawn) [Compound 69, N-(5-(4-(4-((4-([1,1′-biphenyl]-3-yl)-5-chloropyrimidin-2-yl)amino)piperidine-1-carbonyl)piperidin-1-yl)-5-oxopentyl)-2-((2-(2,6-dioxopiperidin-3-yl)-1-oxoisoindolin-4-yl)oxy)acetamide], the DC50 was < 500 nM.

On to `O=C1CCC(Nc2ccc(N3CCN(CC4CCN(C(=O)[C@H]5CC[C@H](Nc6ncc(F)c(-c7cccc(-c8ccc[nH]c8=O)c7)n6)CC5)CC4)CC3)c(F)c2)C(=O)N1` (stereo partly drawn) [Compound 376, trans-3-((3-fluoro-4-(4-((1-(4-((5-fluoro-4-(3-(2-oxo-1,2-dihydropyridin-3-yl)phenyl)pyrimidin-2-yl)amino)cyclohexane-1-carbonyl)piperidin-4-yl)methyl)piperazin-1-yl)phenyl)amino)piperidine-2,6-dione], for which the DC50 is < 500 nM.
